Values quoted from earlier work as cited in US20010026813A1, “Extract from scutellariae radix having neuroprotective effects and pharmaceutical preparations containing the same” (priority 2000, published 2001).
Like-named read-outs stand apart in the source and are kept apart here.

Tested on: 4-VO models

| Structure (SMILES) | defensive level (dose not given) | other results |
| --- | --- | --- |
| O=[N+]([O-])c1cccc2c(Br)n[nH]c12 [3-bromo-7-nitroindazole] | 20% | – |
| O=[N+]([O-])c1cccc2cn[nH]c12 [Example 7-NI] | 17.5% | – |
| CC1=NN=C(c2ccc(N)cc2)c2cc3c(cc2C1)OCO3 [GYK152466] | 11% | – |
| COC(=O)[C@@H](N)CCCNC(=N)N[N+](=O)[O-] [L-NAME] | 23% | – |
| CCNCc1cc(C(C)(C)C)c(O)c(C(C)(C)C)c1 [LY231617] | 25-30% | – |
| CNC(=O)N1N=C(c2ccc(N)cc2)c2cc3c(cc2CC1C)OCO3 (stereo not drawn) [LY300168] | 23% | – |
| C[C@]12N[C@H](Cc3ccccc31)c1ccccc12 [MK-801] | – | defensive level (2 mg/kg, i.p.): 24% |
| NS(=O)(=O)c1cccc2c1c([N+](=O)[O-])cc1nc(O)c(O)nc12 [NBQX] | – | defensive level (30 mg/kg, i.p.): 42% |
| OC(CN1CCC(Cc2ccc(F)cc2)CC1)c1ccc(Cl)cc1 (stereo not drawn) [eliprodil] | – | defensive level (20 mg/kg, i.p.): 25% |
